Key:
Assay type in all cases: cell-based
[1] = test system: E. coli NCTC 4169; assay: Human Red Blood Cell (HRBC) agglutination assay, E. coli NCTC 4169; details: strain 4169, FIG. 1 Raw C
Procedure: (§1) A whole blood (type 0 positive) was acquired from a volunteer and stored with EDTA at 4° C. Before the agglutination experiment, the red blood cells were isolated by centrifugation at 800 rpm for 15 minutes (in order to remove the platelets and plasma). The resulting red blood cells were suspended in phosphate buffered (PBS, pH 7.4) and washed three times to remove EDTA and other blood components, after each wash the supernatant was removed and the remaining cells were resuspended in PBS. Finally, RBC were diluted in 10 ml of PBS to create 1% RBC suspension that was stored at 4° C. until use.
(§2) Standard E. coli strains (NCTC 4169 and NCTC 9775) were grown on TSA plates for 24 h at 37° C. Colony was collected with sterile culturing needle and cells suspended in PBS and washed three times with PBS, after each wash the supernatant was removed. The cells were resuspended in PBS at final concentration of 10^9 cells/ml and stored at 4° C. for an hour.
(§3) The experiments were conducted in round bottom 96-well plate, with final volume 200 μl, made of 98 μl of the 1% RBC suspension, 2 μl extract (or PBS) and 100 μl bacterial suspension or PBS (as control). Extract were prepared in advance at different concentrations in PBS (10 mg/ml, 3 mg/ml, 1 mg/ml, 50 μg/ml and 1 μg/ml). […]

[2] = test system: E. coli NCTC 9775; assay: Human Red Blood Cell (HRBC) agglutination assay, E. coli NCTC 9775; details: strain 9775, FIG. 1 Raw C
Procedure: as §1, §2, §3

[3] = test system: E. coli strains (NCTC 4169 and NCTC 9775); assay: Human Red Blood Cell (HRBC) agglutination assay, strain not specified for the result; details: human RBC + E. coli; strain not stated
Procedure: as §1, §2, §3

O=C[C@@H](O)[C@@H](O)[C@H](O)[C@H](O)CO [D-mannose, D-Mannose]
D-mannose sensitivity of bacteria-induced RBC agglutination [1]: not D-mannose sensitive | D-mannose sensitivity of bacteria-induced RBC agglutination [2]: D-mannose sensitive | concentration that induced agglutination prevention/inhibition [3]: 5 to 10 mg/mL

Source: patent US20190000908A1, “COMPOSITIONS AND METHODS FOR TREATING AND/OR PREVENTING A URINARY TRACT INFECTION” (priority 2017, published 2019)
